Assay results reported in ChEMBL document CHEMBL5029194, “Discovery and Optimization of 7-Alkylidenyltetrahydroindazole-Based Acylsulfonamide EP3 Antagonists” (ACS Med Chem Lett, 2022).
Calls of active or inactive are those of the source. The rule behind the calls is not given here.

Test system: not listed separately
Test: Cmax in Sprague-Dawley rat at 10 mg/kg, po measured up to 7 hrs by LC-MS-MS analysis
Type: ADME, organism-based
Set-up: route oral, dose 10 mg/kg, time <=7
Conditions: in vivo

| Cmax | SMILES |
| --- | --- |
| 7100 nM | COc1ccc(S(=O)(=O)NC(=O)NC/C(F)=C2\CCCc3cnn(Cc4ccc(Cl)cc4Cl)c32)cc1Cl |
| 3820 nM | O=C(NC/C(F)=C1\CCCc2cnn(Cc3ccc(Cl)cc3Cl)c21)NS(=O)(=O)c1cc(Cl)c(Cl)s1 |

Molecular target: T1, Prostaglandin E2 receptor EP3 subtype (Rattus norvegicus, UniProt P34980)
T1 sequence (P34980 whole entry): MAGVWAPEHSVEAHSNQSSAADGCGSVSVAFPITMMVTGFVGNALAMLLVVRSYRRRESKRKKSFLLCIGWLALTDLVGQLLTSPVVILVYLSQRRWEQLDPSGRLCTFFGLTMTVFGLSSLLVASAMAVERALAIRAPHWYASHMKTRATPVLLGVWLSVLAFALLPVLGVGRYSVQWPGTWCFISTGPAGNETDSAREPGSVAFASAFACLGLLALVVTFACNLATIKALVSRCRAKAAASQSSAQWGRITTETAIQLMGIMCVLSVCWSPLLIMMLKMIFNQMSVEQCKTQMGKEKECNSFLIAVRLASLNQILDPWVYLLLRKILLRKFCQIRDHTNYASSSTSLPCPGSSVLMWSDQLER
Test: Binding affinity to rat EP3 receptor assessed as inhibition constant
Conditions: not given

| Ki | SMILES |
| --- | --- |
| 0.0036 µM | O=C(NC/C=C1\CCCc2cnn(Cc3ccc(Cl)cc3Cl)c21)NS(=O)(=O)c1ccc(Cl)cc1 |

Test system: not listed separately
Test: Clearance in Sprague-Dawley rat at 2 mg/kg, iv measured up to 24 hrs by LC-MS-MS analysis
Type: ADME, organism-based
Conditions: in vivo

| clearance | SMILES |
| --- | --- |
| 14.9 mL/min/kg | O=C(NC/C=C1\CCCc2cnn(Cc3ccc(Cl)cc3Cl)c21)NS(=O)(=O)c1ccc(Cl)cc1 |
| 71.7 mL/min/kg | O=C(NS(=O)(=O)c1cc(Cl)c(Cl)s1)OC/C=C1\CCCc2cnn(Cc3ccc(Cl)cc3Cl)c21 |
| 21.3 mL/min/kg | O=C(NS(=O)(=O)c1ccc(Cl)cc1)OC/C=C1\CCCc2cnn(Cc3ccc(Cl)cc3Cl)c21 |
| 81.2 mL/min/kg | O=C(NC/C=C1\CCCc2cnn(Cc3ccc(Cl)cc3Cl)c21)NS(=O)(=O)c1cc(Cl)c(Cl)s1 |
| 2.6 mL/min/kg | COc1ccc(S(=O)(=O)NC(=O)NC/C(F)=C2\CCCc3cnn(Cc4ccc(Cl)cc4Cl)c32)cc1Cl |

Test system: not listed separately
Test: Volume of distribution at steady state in Sprague-Dawley rat at 2 mg/kg, iv measured up to 24 hrs by LC-MS-MS analysis
Type: ADME, organism-based
Conditions: in vivo, read-out: Vdss

| Vd | SMILES |
| --- | --- |
| 1.44 L/kg | O=C(NC/C=C1\CCCc2cnn(Cc3ccc(Cl)cc3Cl)c21)NS(=O)(=O)c1ccc(Cl)cc1 |
| 3.45 L/kg | O=C(NS(=O)(=O)c1cc(Cl)c(Cl)s1)OC/C=C1\CCCc2cnn(Cc3ccc(Cl)cc3Cl)c21 |
| 4.61 L/kg | O=C(NS(=O)(=O)c1ccc(Cl)cc1)OC/C=C1\CCCc2cnn(Cc3ccc(Cl)cc3Cl)c21 |
| 2.21 L/kg | O=C(NC/C=C1\CCCc2cnn(Cc3ccc(Cl)cc3Cl)c21)NS(=O)(=O)c1cc(Cl)c(Cl)s1 |
| 0.346 L/kg | COc1ccc(S(=O)(=O)NC(=O)NC/C(F)=C2\CCCc3cnn(Cc4ccc(Cl)cc4Cl)c32)cc1Cl |

Molecular target: T2, Prostaglandin E2 receptor EP1 subtype (Homo sapiens, UniProt P34995)
T2 sequence (P34995 whole entry): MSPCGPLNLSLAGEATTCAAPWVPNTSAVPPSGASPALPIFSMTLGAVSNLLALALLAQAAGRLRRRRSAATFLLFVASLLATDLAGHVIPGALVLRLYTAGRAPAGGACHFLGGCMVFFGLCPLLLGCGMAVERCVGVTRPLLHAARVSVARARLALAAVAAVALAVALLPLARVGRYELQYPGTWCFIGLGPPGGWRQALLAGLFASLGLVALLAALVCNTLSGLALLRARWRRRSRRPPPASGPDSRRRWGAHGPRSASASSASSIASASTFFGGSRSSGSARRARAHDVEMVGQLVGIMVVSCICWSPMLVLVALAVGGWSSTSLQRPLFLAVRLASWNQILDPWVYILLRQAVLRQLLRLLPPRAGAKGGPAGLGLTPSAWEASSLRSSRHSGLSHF
Test: Binding affinity to human EP1 receptor assessed as inhibition constant
Conditions: not given

| Ki | SMILES |
| --- | --- |
| 3.5 µM | O=C(NC/C=C1\CCCc2cnn(Cc3ccc(Cl)cc3Cl)c21)NS(=O)(=O)c1ccc(Cl)cc1 |

Molecular target: Prostaglandin E2 receptor EP4 subtype (Homo sapiens, UniProt P35408)
Test: Binding affinity to human EP4 receptor assessed as inhibition constant
Conditions: not given

Prostaglandin E2 receptor EP4 subtype, sequence (P35408 whole entry): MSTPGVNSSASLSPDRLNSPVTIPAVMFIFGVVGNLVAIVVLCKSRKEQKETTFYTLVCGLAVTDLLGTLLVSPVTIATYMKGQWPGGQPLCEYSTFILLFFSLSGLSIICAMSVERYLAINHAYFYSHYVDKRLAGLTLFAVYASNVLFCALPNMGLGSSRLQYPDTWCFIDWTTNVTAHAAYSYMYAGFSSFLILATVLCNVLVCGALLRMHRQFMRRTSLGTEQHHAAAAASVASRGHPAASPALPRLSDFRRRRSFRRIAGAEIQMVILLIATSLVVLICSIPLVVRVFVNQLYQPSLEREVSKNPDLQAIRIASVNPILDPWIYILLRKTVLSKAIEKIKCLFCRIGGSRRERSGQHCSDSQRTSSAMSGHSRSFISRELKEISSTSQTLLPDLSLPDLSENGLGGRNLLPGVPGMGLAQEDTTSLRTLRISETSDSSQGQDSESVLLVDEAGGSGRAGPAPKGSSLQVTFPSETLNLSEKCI

| Ki | SMILES |
| --- | --- |
| > 10 µM | O=C(NC/C=C1\CCCc2cnn(Cc3ccc(Cl)cc3Cl)c21)NS(=O)(=O)c1ccc(Cl)cc1 |

Test system: Rattus norvegicus
Test: In vivo antagonist activity at […] receptor in Sprague-Dawley rat assessed as reversal of sulprostone induced reduction in circulating insulin levels at 10 times Ki, administered as iv infusion measured up to 30 mins after glucose administration by glucose tolerance test
Type: functional, organism-based
Conditions: time min <=30

| SMILES | Activity |
| --- | --- |
| O=C(NC/C=C1\CCCc2cnn(Cc3ccc(Cl)cc3Cl)c21)NS(=O)(=O)c1ccc(Cl)cc1 | Active |

Test system: not listed separately
Test: AUClast in Sprague-Dawley rat at 10 mg/kg, po measured up to 7 hrs by LC-MS-MS analysis
Type: ADME, organism-based
Set-up: route oral, dose 10 mg/kg, time <=7
Conditions: in vivo

| AUC(0-t) at 7 h | SMILES |
| --- | --- |
| 31.9 µM·h | COc1ccc(S(=O)(=O)NC(=O)NC/C(F)=C2\CCCc3cnn(Cc4ccc(Cl)cc4Cl)c32)cc1Cl |
| 16.6 µM·h | O=C(NC/C(F)=C1\CCCc2cnn(Cc3ccc(Cl)cc3Cl)c21)NS(=O)(=O)c1cc(Cl)c(Cl)s1 |

Test system: not listed separately
Test: Free plasma concentration in Sprague-Dawley rat at 10 times Ki administered as iv infusion measured after 2 to 50 mins
Type: ADME, organism-based
Conditions: in vivo, time 2-50 min

| Cp(f) | SMILES |
| --- | --- |
| 36 nM | O=C(NC/C=C1\CCCc2cnn(Cc3ccc(Cl)cc3Cl)c21)NS(=O)(=O)c1ccc(Cl)cc1 |

Molecular target: Prostaglandin E2 receptor EP2 subtype (Homo sapiens, UniProt P43116)
Test: Binding affinity to human EP2 receptor assessed as inhibition constant
Conditions: not given

Prostaglandin E2 receptor EP2 subtype, sequence (P43116 whole entry): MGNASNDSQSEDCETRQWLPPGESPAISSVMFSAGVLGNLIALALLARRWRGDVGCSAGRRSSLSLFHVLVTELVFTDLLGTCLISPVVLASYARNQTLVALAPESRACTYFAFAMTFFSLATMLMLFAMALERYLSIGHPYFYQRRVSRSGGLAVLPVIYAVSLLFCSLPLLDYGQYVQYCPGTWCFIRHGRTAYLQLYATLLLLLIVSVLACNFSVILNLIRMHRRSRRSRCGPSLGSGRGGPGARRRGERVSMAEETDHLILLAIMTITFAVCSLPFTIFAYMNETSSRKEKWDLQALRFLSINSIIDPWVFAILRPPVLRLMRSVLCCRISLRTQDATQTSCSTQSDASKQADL

| Ki | SMILES |
| --- | --- |
| > 10 µM | O=C(NC/C=C1\CCCc2cnn(Cc3ccc(Cl)cc3Cl)c21)NS(=O)(=O)c1ccc(Cl)cc1 |

Test system: not listed separately
Test: Half life in Sprague-Dawley rat at 10 mg/kg, po measured up to 24 hrs by LC-MS-MS analysis
Type: ADME, organism-based
Conditions: in vivo

| half-life | SMILES |
| --- | --- |
| 2.8 h | O=C(NC/C=C1\CCCc2cnn(Cc3ccc(Cl)cc3Cl)c21)NS(=O)(=O)c1ccc(Cl)cc1 |
| 2.3 h | O=C(NS(=O)(=O)c1cc(Cl)c(Cl)s1)OC/C=C1\CCCc2cnn(Cc3ccc(Cl)cc3Cl)c21 |
| 3.6 h | O=C(NS(=O)(=O)c1ccc(Cl)cc1)OC/C=C1\CCCc2cnn(Cc3ccc(Cl)cc3Cl)c21 |
| 2.8 h | O=C(NC/C=C1\CCCc2cnn(Cc3ccc(Cl)cc3Cl)c21)NS(=O)(=O)c1cc(Cl)c(Cl)s1 |
| 2.9 h | COc1ccc(S(=O)(=O)NC(=O)NC/C(F)=C2\CCCc3cnn(Cc4ccc(Cl)cc4Cl)c32)cc1Cl |

Test system: not listed separately
Test: Half life in Sprague-Dawley rat at 2 mg/kg, iv measured up to 24 hrs by LC-MS-MS analysis
Type: ADME, organism-based
Conditions: in vivo

| half-life | SMILES |
| --- | --- |
| 1.9 h | O=C(NC/C=C1\CCCc2cnn(Cc3ccc(Cl)cc3Cl)c21)NS(=O)(=O)c1ccc(Cl)cc1 |
| 2.1 h | O=C(NS(=O)(=O)c1cc(Cl)c(Cl)s1)OC/C=C1\CCCc2cnn(Cc3ccc(Cl)cc3Cl)c21 |
| 3.5 h | O=C(NS(=O)(=O)c1ccc(Cl)cc1)OC/C=C1\CCCc2cnn(Cc3ccc(Cl)cc3Cl)c21 |
| 0.79 h | O=C(NC/C=C1\CCCc2cnn(Cc3ccc(Cl)cc3Cl)c21)NS(=O)(=O)c1cc(Cl)c(Cl)s1 |
| 6.2 h | COc1ccc(S(=O)(=O)NC(=O)NC/C(F)=C2\CCCc3cnn(Cc4ccc(Cl)cc4Cl)c32)cc1Cl |

Test system: not listed separately
Test: Oral bioavailability in Sprague-Dawley rat at 10 mg/kg measured up to 24 hrs by LC-MS-MS analysis
Type: ADME, organism-based
Conditions: in vivo

| bioavailability | SMILES |
| --- | --- |
| 25% | O=C(NC/C=C1\CCCc2cnn(Cc3ccc(Cl)cc3Cl)c21)NS(=O)(=O)c1ccc(Cl)cc1 |
| 24% | O=C(NS(=O)(=O)c1cc(Cl)c(Cl)s1)OC/C=C1\CCCc2cnn(Cc3ccc(Cl)cc3Cl)c21 |
| 46% | O=C(NS(=O)(=O)c1ccc(Cl)cc1)OC/C=C1\CCCc2cnn(Cc3ccc(Cl)cc3Cl)c21 |
| 84% | O=C(NC/C=C1\CCCc2cnn(Cc3ccc(Cl)cc3Cl)c21)NS(=O)(=O)c1cc(Cl)c(Cl)s1 |
| 44% | COc1ccc(S(=O)(=O)NC(=O)NC/C(F)=C2\CCCc3cnn(Cc4ccc(Cl)cc4Cl)c32)cc1Cl |

Test system: not listed separately
Test: AUC(0 to 24 hrs) in Sprague-Dawley rat at 10 mg/kg, po measured up to 24 hrs by LC-MS-MS analysis
Type: ADME, organism-based
Set-up: route oral, dose 10 mg/kg, time <=24
Conditions: in vivo

| AUC(0-t) | SMILES |
| --- | --- |
| 5.27 µM·h | O=C(NC/C=C1\CCCc2cnn(Cc3ccc(Cl)cc3Cl)c21)NS(=O)(=O)c1ccc(Cl)cc1 |
| 0.89 µM·h | O=C(NS(=O)(=O)c1cc(Cl)c(Cl)s1)OC/C=C1\CCCc2cnn(Cc3ccc(Cl)cc3Cl)c21 |
| 7.43 µM·h | O=C(NS(=O)(=O)c1ccc(Cl)cc1)OC/C=C1\CCCc2cnn(Cc3ccc(Cl)cc3Cl)c21 |
| 2.75 µM·h | O=C(NC/C=C1\CCCc2cnn(Cc3ccc(Cl)cc3Cl)c21)NS(=O)(=O)c1cc(Cl)c(Cl)s1 |
| 49 µM·h | COc1ccc(S(=O)(=O)NC(=O)NC/C(F)=C2\CCCc3cnn(Cc4ccc(Cl)cc4Cl)c32)cc1Cl |

Test system: not listed separately
Test: AUClast in Sprague-Dawley rat at 10 mg/kg, po measured up to 24 hrs by LC-MS-MS analysis
Type: ADME, organism-based
Set-up: route oral, dose 10 mg/kg, time <=24
Conditions: in vivo

| AUC(0-t) at 24 h | SMILES |
| --- | --- |
| 5.27 µM·h | O=C(NC/C=C1\CCCc2cnn(Cc3ccc(Cl)cc3Cl)c21)NS(=O)(=O)c1ccc(Cl)cc1 |
| 2.75 µM·h | O=C(NC/C=C1\CCCc2cnn(Cc3ccc(Cl)cc3Cl)c21)NS(=O)(=O)c1cc(Cl)c(Cl)s1 |

Test system: not listed separately
Test: Cmax in Sprague-Dawley rat at 10 mg/kg, po measured up to 24 hrs by LC-MS-MS analysis
Type: ADME, organism-based
Set-up: route oral, dose 10 mg/kg, time <=24
Conditions: in vivo

| Cmax | SMILES |
| --- | --- |
| 1110 nM | O=C(NC/C=C1\CCCc2cnn(Cc3ccc(Cl)cc3Cl)c21)NS(=O)(=O)c1ccc(Cl)cc1 |
| 130 nM | O=C(NS(=O)(=O)c1cc(Cl)c(Cl)s1)OC/C=C1\CCCc2cnn(Cc3ccc(Cl)cc3Cl)c21 |
| 750 nM | O=C(NS(=O)(=O)c1ccc(Cl)cc1)OC/C=C1\CCCc2cnn(Cc3ccc(Cl)cc3Cl)c21 |
| 1670 nM | O=C(NC/C=C1\CCCc2cnn(Cc3ccc(Cl)cc3Cl)c21)NS(=O)(=O)c1cc(Cl)c(Cl)s1 |
| 9390 nM | COc1ccc(S(=O)(=O)NC(=O)NC/C(F)=C2\CCCc3cnn(Cc4ccc(Cl)cc4Cl)c32)cc1Cl |
